Data reported in US6426369B1, “Oxethazaine as antimicrobial agent” (Eisai Co., Ltd., priority 1997, dated 2002).
In brackets after ≈: the same amount, converted by molar mass.

Tests used:
H. pylori [1] = test: Antimicrobial activity test 1: anti-H. pylori activity of a single compound (agar plate method); format: cell-based, Helicobacter pylori; conditions: for MIC: Helicobacter pylori
H. pylori [2] = test: Antimicrobial activity test 3: oxethazaine in combination with compound (II), checker board method; format: cell-based; conditions: Helicobacter pylori
Description: In each Table, the concentration of oxethazaine is shown vertically, and the concentration of compound (II) is shown horizontally. In each Table, “−” indicates the inhibited growth of H. pylori (presence of antimicrobial activity), and “+” indicates the growth of H. pylori (absence of antimicrobial activity). […] It is assumed to be present when the MIC of either oxethazaine or PPI is reduced by ½ (when anti-H. pylori activity is not recognized when the concentrations of both oxethazaine and PPI are reduced to ¼, but anti-H. pylori activity is recognized when the concentration of one compound is reduced to ¼ and simultaneously the concentration of the other compound is reduced to ½.).

H. pylori [3] = test: Antimicrobial activity test 5: oxethazaine in combination with compound (IV) (lansoprazole), checker board method; format: cell-based, Helicobacter pylori
Description: The effect of oxethazaine used in combination with compound (IV) (lansoprazole) was examined in the same manner as in antimicrobial activity test 1, using the checker board method.
Hereinafter, the results are shown for each strain in the same manner as in antimicrobial activity test 3.

[4] = Acute toxicity test, single oral dose, rats; format: in vivo, Slc:SD rats; conditions: for LD50: Slc:SD, rat, in vivo, po, single oral dose, read-out: LD50 (Oral administration)
Description: (§1) A toxicity test was conducted by orally administering a single dose into 7- to 8-weeks old Slc:SD rats and Slc:ICR mice, each group consisting of 5 females and 5 males (medium; physiological saline).

[5] = Acute toxicity test, single oral dose, mice; conditions: Slc:ICR, mouse, in vivo, read-out: LD50 (Oral administration)
Description: as §1

CN(C(=O)CN(CCO)CC(=O)N(C)C(C)(C)Cc1ccccc1)C(C)(C)Cc1ccccc1 [Oxethazaine, 2,2′-[(2-hydroxyethyl)amino]bis[N-(1,1-dimethyl-2-phenylethyl)-N-methylacetamide]]
MIC (H. pylori [1]; NCTC11637, strain NCTC11637, read-out: MIC (growth inhibition)): 25 µg/mL (≈ 53.5 µM)
MIC (H. pylori [1]; NCTC11639, strain NCTC11639, read-out: MIC (growth inhibition)): 50 µg/mL (≈ 107 µM)
MIC (H. pylori [1]; NCTC11916, strain NCTC11916, read-out: MIC (growth inhibition)): 25 µg/mL (≈ 53.5 µM)
MIC (H. pylori [1]; strain 89-355, read-out: MIC (growth inhibition)): 12.5 µg/mL (≈ 26.7 µM)
MIC (H. pylori [1]; strain 89-357, read-out: MIC (growth inhibition)): 25 µg/mL (≈ 53.5 µM)
MIC (H. pylori [1]; strain 89-360 (1), read-out: MIC (growth inhibition)): 25 µg/mL (≈ 53.5 µM)
MIC (H. pylori [1]; strain 89-360, read-out: MIC (growth inhibition)): 25 µg/mL (≈ 53.5 µM)
MIC (H. pylori [1]; strain 90-384, read-out: MIC (growth inhibition)): 25 µg/mL (≈ 53.5 µM)
MIC (H. pylori [1]; strain 90-388 (1), read-out: MIC (growth inhibition)): 25 µg/mL (≈ 53.5 µM)
MIC (H. pylori [1]; strain 90-388, read-out: MIC (growth inhibition)): 25 µg/mL (≈ 53.5 µM)
MIC (H. pylori [1]; strain 90-390 (1), read-out: MIC (growth inhibition)): 25 µg/mL (≈ 53.5 µM)
MIC (H. pylori [1]; strain 90-390, read-out: MIC (growth inhibition)): 25 µg/mL (≈ 53.5 µM)
MIC (H. pylori [1]; strain 90-392, read-out: MIC (growth inhibition)): 25 µg/mL (≈ 53.5 µM)
MIC (H. pylori [1]; strain 90-397 (first line, r19), read-out: MIC (growth inhibition)): 25 µg/mL (≈ 53.5 µM)
MIC (H. pylori [1]; strain 90-397 (second line, r25), read-out: MIC (growth inhibition)): 25 µg/mL (≈ 53.5 µM)
MIC (H. pylori [1]; strain 90-407 (1), read-out: MIC (growth inhibition)): 25 µg/mL (≈ 53.5 µM)
MIC (H. pylori [1]; strain 90-407, read-out: MIC (growth inhibition)): 25 µg/mL (≈ 53.5 µM)
MIC (H. pylori [1]; strain 90-411, read-out: MIC (growth inhibition)): 25 µg/mL (≈ 53.5 µM)
MIC (H. pylori [1]; strain 90-414 (1), read-out: MIC (growth inhibition)): 25 µg/mL (≈ 53.5 µM)
MIC (H. pylori [1]; strain 90-414, read-out: MIC (growth inhibition)): 25 µg/mL (≈ 53.5 µM)
MIC (H. pylori [1]; strain 90-428, read-out: MIC (growth inhibition)): 25 µg/mL (≈ 53.5 µM)
MIC (H. pylori [1]; strain EH12, read-out: MIC (growth inhibition)): 25 µg/mL (≈ 53.5 µM)
MIC (H. pylori [1]; strain EH13, read-out: MIC (growth inhibition)): 25 µg/mL (≈ 53.5 µM)
MIC (H. pylori [1]; strain EH16, read-out: MIC (growth inhibition)): 25 µg/mL (≈ 53.5 µM)
MIC (H. pylori [1]; strain EH26, read-out: MIC (growth inhibition)): 25 µg/mL (≈ 53.5 µM)
MIC (H. pylori [1]; summary of the strains of antimicrobial activity test 1, read-out: MIC for each strain): ~25 µg/mL (≈ 53.5 µM)
anti-H. pylori activity (H. pylori [1]; conclusion from test 1): excellent anti-H. pylori activity
MIC (H. pylori [2]; NCTC11637, NCTC 11637): 25 µg/mL
MIC (H. pylori [2]; NCTC11639, NCTC 11639): 50 µg/mL
effect of combined use (H. pylori [3]; strain 90-392): 90-392 (additive effect)
effect of combined use (H. pylori [3]; strain 90-397): 90-397 (synergism)
effect of combined use (H. pylori [3]; strain 90-414): 90-414 (synergism)
effect of combined use (H. pylori [3]; strain 90-414(1)): 90-414(1) (synergism)
LD50 ([4]; female, Rat ♀): 1070 mg/kg
LD50 ([4]; male, Rat ♂): ≥ 1000 mg/kg
LD50 values relative to clinical doses ([4]; oral, rats and mice, clinical doses 15 to 40 mg/day): about 5000 times
LD50 ([5]; female, Mouse ♀): ≥ 1000 mg/kg
LD50 ([5]; male, Mouse ♂): 1230 mg/kg
